Data from ChEMBL document CHEMBL5120782, “Structure and Candidate Biosynthetic Gene Cluster of a Manumycin-Type Metabolite from Salinispora pacifica” (J Nat Prod, 2022).

Experiments:
[1] = Antibacterial activity against Bacillus oceanisediminis CNY-977 assessed as reduction in microbial growth incubated for 18 hrs by CLSI based method; assay type: functional; details: Cytobacillus oceanisediminis
[2] = system: NCI-H460; assay: Cytotoxicity against human NCI-H460 cells assessed as reduction in cell viability incubated for 48 hrs by MTT assay; assay type: functional, cell-based; details: NCI-H460, 48 h

MIC [1] | Compound | EC50 [2]
50 µM | CC(C)=C[C@H](C)C[C@H](C)/C=C(\CO)C(=O)NC1=C[C@](O)(CCC(N)=O)[C@H]2O[C@H]2C1=O | –
– | CCCC/C=C/C=C/C=C/C=N/NN=O | 5.5 µM
